According to ChEMBL document CHEMBL1201862, “PubChem BioAssay data set” (2004):
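Five compound concentrations were applied to cells in 96-well plates for 48 hours; endpoints were derived by simple linear interpolation of the resulting dose-response curve. GI50 marks 50% less growth.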 Active and inactive are the calls of the source. No stated cut-off is given here; in the data, active = GI50 up to about 1.1 µM and inactive = higher.

How the values were obtained:
Test in all cases: inhibition of tumour cell growth, NCI panel, 48 h
RXF 393 = tested on: RXF 393
OVCAR-5 = tested on: OVCAR-5
SK-MEL-2 = tested on: SK-MEL-2
COLO 205 = tested on: COLO 205
UACC-62 = tested on: UACC-62
T47D = tested on: T47D
MDA-MB-231 = tested on: MDA-MB-231
NCI-H226 = tested on: NCI-H226
KM12 = tested on: KM12
OVCAR-8 = tested on: OVCAR-8
ACHN = tested on: ACHN
HCC 2998 = tested on: HCC 2998
NCI-H460 = tested on: NCI-H460
SK-MEL-5 = tested on: SK-MEL-5
CAKI-1 = tested on: CAKI-1
EKVX = tested on: EKVX
786-0 = tested on: 786-0
NCI-H23 = tested on: NCI-H23
PC-3 = tested on: PC-3
A549 = tested on: A549

Row | SMILES | GI50 (RXF 393) | GI50 (OVCAR-5) | GI50 (SK-MEL-2) | GI50 (COLO 205) | GI50 (UACC-62) | GI50 (T47D) | GI50 (MDA-MB-231) | GI50 (NCI-H226) | GI50 (KM12) | GI50 (OVCAR-8) | GI50 (ACHN) | GI50 (HCC 2998) | GI50 (NCI-H460) | GI50 (SK-MEL-5) | GI50 (CAKI-1) | GI50 (EKVX) | GI50 (786-0) | GI50 (NCI-H23) | GI50 (PC-3) | GI50 (A549)
1 | CC1(O)CC2(O)C=CC3=C(C(=O)c4cccc(O)c4C3=O)C2(O)C(=O)C1O (stereo not drawn) | 0.964 µM (active) | 5.04 µM (inactive) | 4.18 µM (inactive) | 0.152 µM (active) | 2.94 µM (inactive) | 1.64 µM (inactive) | 3.31 µM (inactive) | 10.6 µM (inactive) | 8 µM (inactive) | 3.56 µM (inactive) | 1.63 µM (inactive) | 4.09 µM (inactive) | 15.6 µM (inactive) | 3.3 µM (inactive) | 0.91 µM (active) | 2.44 µM (inactive) | 1.96 µM (inactive) | 2.92 µM (inactive) | 6 µM (inactive) | 9.95 µM (inactive)
2 | COC(=O)[C@@H]1Cc2ccc(OC)c(c2)OCCC(=O)N1 | > 100 µM (inactive) | > 100 µM (inactive) | > 100 µM (inactive) | > 100 µM (inactive) | > 100 µM (inactive) | > 100 µM (inactive) | > 100 µM (inactive) | > 100 µM (inactive) | > 100 µM (inactive) | > 100 µM (inactive) | > 100 µM (inactive) | > 100 µM (inactive) | – | > 100 µM (inactive) | > 100 µM (inactive) | > 100 µM (inactive) | > 100 µM (inactive) | > 100 µM (inactive) | > 100 µM (inactive) | > 100 µM (inactive)
3 | CCC(CCC(C)C1CCC2C3CC=C4CC(OC5OC(CO)C(O)C(O)C5O)CCC4(C)C3CCC12C)C(C)C (stereo not drawn) | > 100 µM (inactive) | > 100 µM (inactive) | > 100 µM (inactive) | > 100 µM (inactive) | > 100 µM (inactive) | > 100 µM (inactive) | > 100 µM (inactive) | > 100 µM (inactive) | > 100 µM (inactive) | > 100 µM (inactive) | > 100 µM (inactive) | > 100 µM (inactive) | > 100 µM (inactive) | > 100 µM (inactive) | > 100 µM (inactive) | > 100 µM (inactive) | > 100 µM (inactive) | > 100 µM (inactive) | > 100 µM (inactive) | > 100 µM (inactive)
4 | COc1ccc(C(NS(=O)(=O)c2ccc(C)cc2)c2c(C(CBr)OC)c3ccccc3n2S(=O)(=O)c2ccccc2)cc1OC (stereo not drawn) | > 100 µM (inactive) | > 100 µM (inactive) | > 100 µM (inactive) | > 100 µM (inactive) | > 100 µM (inactive) | > 100 µM (inactive) | 52.8 µM (inactive) | > 100 µM (inactive) | > 100 µM (inactive) | > 100 µM (inactive) | > 100 µM (inactive) | > 100 µM (inactive) | > 100 µM (inactive) | > 100 µM (inactive) | > 100 µM (inactive) | > 100 µM (inactive) | > 100 µM (inactive) | > 100 µM (inactive) | > 100 µM (inactive) | > 100 µM (inactive)
5 | CCOC(OCC)C(CCc1ccccc1)c1c(N)nc(N)[nH]c1=O (stereo not drawn) | 57.7 µM (inactive) | 13.5 µM (inactive) | 53 µM (inactive) | 17.4 µM (inactive) | 46.1 µM (inactive) | 68.7 µM (inactive) | > 100 µM (inactive) | 41.2 µM (inactive) | 66.4 µM (inactive) | > 100 µM (inactive) | – | 26.1 µM (inactive) | 56.8 µM (inactive) | 47.6 µM (inactive) | 34.9 µM (inactive) | 3.76 µM (inactive) | 89.7 µM (inactive) | 79.8 µM (inactive) | 39.3 µM (inactive) | 54.1 µM (inactive)
6 | COc1ccc(C2=NN(C(=O)c3ccccc3)C(O)(c3cc(F)c(Cl)cc3Cl)C2)cc1OC (stereo not drawn) | 18.9 µM (inactive) | 71.3 µM (inactive) | 29 µM (inactive) | > 100 µM (inactive) | 45.6 µM (inactive) | 50.8 µM (inactive) | 42.2 µM (inactive) | > 100 µM (inactive) | > 100 µM (inactive) | 48.4 µM (inactive) | 32.5 µM (inactive) | 30.9 µM (inactive) | 83.2 µM (inactive) | > 100 µM (inactive) | 27.5 µM (inactive) | 32.7 µM (inactive) | 30.3 µM (inactive) | 42.3 µM (inactive) | 31.3 µM (inactive) | 93.8 µM (inactive)
7 | O=[N+]([O-])c1ccc(-c2nn3c(C45CC6CC(CC(C6)C4)C5)nnc3s2)c(Cl)c1 | > 100 µM (inactive) | > 100 µM (inactive) | > 100 µM (inactive) | > 100 µM (inactive) | > 100 µM (inactive) | > 100 µM (inactive) | > 100 µM (inactive) | > 100 µM (inactive) | > 100 µM (inactive) | > 100 µM (inactive) | > 100 µM (inactive) | > 100 µM (inactive) | > 100 µM (inactive) | > 100 µM (inactive) | > 100 µM (inactive) | > 100 µM (inactive) | > 100 µM (inactive) | > 100 µM (inactive) | > 100 µM (inactive) | > 100 µM (inactive)
8 | NC(=O)c1cc2cc(Cl)cc(Cl)c2o/c1=N\c1ccc(F)cc1 | 16.8 µM (inactive) | 19.6 µM (inactive) | 16.3 µM (inactive) | 17.5 µM (inactive) | 23.3 µM (inactive) | 18.3 µM (inactive) | 17.5 µM (inactive) | 18.6 µM (inactive) | 26.5 µM (inactive) | 37.6 µM (inactive) | 19.5 µM (inactive) | 21.1 µM (inactive) | 17.1 µM (inactive) | 16.9 µM (inactive) | 18.1 µM (inactive) | 15.2 µM (inactive) | 12.2 µM (inactive) | 14.7 µM (inactive) | 19.1 µM (inactive) | 19.3 µM (inactive)
9 | C[C@@H]1CCC2[C@@H](C)[C@@H](OCCO[C@H]3OC4O[C@@]5(C)CCC6[C@H](C)CCC([C@H]3C)[C@@]46OO5)OC3O[C@@]4(C)CCC1[C@]32OO4 (stereo partly drawn) | 0.94 µM (active) | 0.0826 µM (active) | 0.292 µM (active) | 0.0514 µM (active) | 0.279 µM (active) | 0.0263 µM (active) | 2.21 µM (inactive) | 0.289 µM (active) | 0.056 µM (active) | 0.0982 µM (active) | 0.154 µM (active) | 6.92 µM (inactive) | 0.151 µM (active) | 0.301 µM (active) | 0.0652 µM (active) | 1.48 µM (inactive) | 0.361 µM (active) | 0.115 µM (active) | 0.0174 µM (active) | 0.0634 µM (active)
10 | CCOC(=O)C(Cc1ccc(OC(=O)c2ccc(OC)cc2)cc1)NC(=O)C(F)(F)F (stereo not drawn) | 27.9 µM (inactive) | > 100 µM (inactive) | > 100 µM (inactive) | > 100 µM (inactive) | > 100 µM (inactive) | > 100 µM (inactive) | 77.6 µM (inactive) | > 100 µM (inactive) | > 100 µM (inactive) | > 100 µM (inactive) | 53.6 µM (inactive) | > 100 µM (inactive) | > 100 µM (inactive) | > 100 µM (inactive) | > 100 µM (inactive) | > 100 µM (inactive) | > 100 µM (inactive) | 45.2 µM (inactive) | > 100 µM (inactive) | > 100 µM (inactive)
11 | Nc1cc(C2CCCc3c2[nH]c2ccccc32)ccc1O (stereo not drawn) | 55.8 µM (inactive) | 24.1 µM (inactive) | 31.9 µM (inactive) | 45.4 µM (inactive) | 10.8 µM (inactive) | 14.3 µM (inactive) | 84.5 µM (inactive) | 55.3 µM (inactive) | 20.1 µM (inactive) | 24.3 µM (inactive) | 18.5 µM (inactive) | 64.7 µM (inactive) | > 100 µM (inactive) | 6 µM (inactive) | 25.2 µM (inactive) | 44 µM (inactive) | 15.3 µM (inactive) | 36.5 µM (inactive) | 38.5 µM (inactive) | 24.6 µM (inactive)
12 | O=C1OCC2OC(=O)c3cc(O)c(O)c(O)c3-c3c(O)c(O)c(O)c4c3C(=O)OC(C2OC(=O)c2cc(O)c(O)c(O)c2-c2c1cc(O)c(O)c2O)C1OC(=O)C2C4=C(O)C(=O)C23Oc2cc(O)c4c(c2[C@H]13)O[C@H](c1ccc(O)c(O)c1)[C@@H](O)C4 (stereo partly drawn) | 16.8 µM (inactive) | 14.6 µM (inactive) | 20.2 µM (inactive) | 19.2 µM (inactive) | 20.4 µM (inactive) | 20.7 µM (inactive) | 18.9 µM (inactive) | 14.2 µM (inactive) | 24.8 µM (inactive) | 22.2 µM (inactive) | 23 µM (inactive) | 25.2 µM (inactive) | 20.5 µM (inactive) | 16 µM (inactive) | 16.2 µM (inactive) | 12.7 µM (inactive) | 21.4 µM (inactive) | 19.8 µM (inactive) | 38.5 µM (inactive) | 19.1 µM (inactive)
13 | C=C1[C@H](OCC(C)C)[C@@H](O)[C@@H](OC(=O)c2cccnc2)C(C)(C)/C=C/[C@H](C)[C@H](OC(C)=O)[C@@]2(O)C[C@@](C)(OC(C)=O)[C@H](OC(=O)c3ccccc3)[C@@H]2[C@H]1OC(C)=O | 4.24 µM (inactive) | > 2.43 µM (inactive) | > 2.13 µM (inactive) | 0.0713 µM (active) | 2.07 µM (inactive) | > 2.96 µM (inactive) | > 2.54 µM (inactive) | 1.39 µM (inactive) | 1.34 µM (inactive) | 1.22 µM (inactive) | 0.161 µM (active) | 0.19 µM (active) | 0.0126 µM (active) | 0.332 µM (active) | 0.488 µM (active) | 1.04 µM (active) | 1.67 µM (inactive) | 1.95 µM (inactive) | 1.66 µM (inactive) | 0.0459 µM (active)
